Measurements taken from ChEMBL document CHEMBL1130480, “Structure-activity relationship of cantharidin derivatives to protein phosphatases 1, 2A1, and 2B” (Bioorg Med Chem Lett, 1997).

Columns and labels:
Oryctolagus cuniculus [1] = species on record: Oryctolagus cuniculus; assay: Inhibition of Protein phosphatase 1 at 0.1 mM
Oryctolagus cuniculus [2] = species on record: Oryctolagus cuniculus; assay: Inhibition of Protein phosphatase 2A1 (PP2A1) at 0.1 mM
Bos taurus [3] = species on record: Bos taurus; assay: Inhibition of Protein phosphatase 2B (PP2B) at 1 mM
Oryctolagus cuniculus [4] = species on record: Oryctolagus cuniculus; assay: Inhibition of Protein phosphatase 1 at 1 mM
Oryctolagus cuniculus [5] = species on record: Oryctolagus cuniculus; assay: Inhibition of Protein phosphatase 2A1 (PP2A1) at 1 mM
Bos taurus [6] = species on record: Bos taurus; assay: Inhibition of Protein phosphatase 2B (PP2B) at 0.1 mM

Structure (SMILES) | inhibition (Oryctolagus cuniculus [1]) | inhibition (Oryctolagus cuniculus [2]) | inhibition (Bos taurus [3]) | inhibition (Oryctolagus cuniculus [4]) | inhibition (Oryctolagus cuniculus [5]) | inhibition (Bos taurus [6])
O=C1OC(=O)C2C3OC(CC3COC3CCCCC3)C12 (centres undefined) | 70% | 75% | 100% | 90% | 100% | 40%
O=C1OC(=O)C2C3OC(C=C3COC3CCCCC3)C12 (centres undefined) | 50% | 80% | 70% | 60% | 100% | 30%
CC(=O)OCC12C=CC(O1)C(C(=O)O)C2C(=O)O (centres undefined) | 5% | 0% | 60% | 40% | 25% | 10%
CC12CCC(C)(O1)C(C(=O)O)C2C(=O)O (centres undefined) | 0% | 0% | 18% | 1% | 2% | 17%
CC(=O)OCC1CC2OC1C1C(=O)OC(=O)C21 (centres undefined) | 90% | 70% | 85% | 100% | 98% | 20%
CC(=O)OCC1=CC2OC1C(C(=O)O)C2C(=O)O (centres undefined) | 50% | 40% | 89% | 80% | 90% | 20%
C[C@@]12C(=O)OC(=O)[C@]1(C)C1CCC2O1 | 85% | 85% | 38% | 90% | 98% | 15%
O=C1OC(=O)C2C3CCC(O3)C12 (centres undefined) | 95% | 94% | 98% | 100% | 100% | 35%
CC(=O)OCC12CCC(O1)C1C(=O)OC(=O)C12 (centres undefined) | 20% | 5% | 45% | 70% | 50% | 30%
O=C(O)C1C2CCC3(COC(=O)C13)O2 (centres undefined) | 9% | 8% | 20% | 20% | 8% | 18%
O=C1OC(=O)C2C3C=CC(O3)C12 (centres undefined) | 95% | 95% | 99% | 98% | 95% | 40%
O=C1OC(=O)C2C1C1C=CC2(CO)O1 (centres undefined) | 8% | 5% | 50% | 18% | 12% | 10%
CC(=O)OCC12C=CC(O1)C1C(=O)OC(=O)C12 (centres undefined) | 5% | 5% | 50% | 30% | 40% | 10%
CC(=O)OCC1=CC2OC1C1C(=O)OC(=O)C21 (centres undefined) | 59% | 60% | 90% | 92% | 98% | 25%
